What was measured:
in vitro = type: cell-based; details: human; cell viability after 24 hours incubation, at least two independent experiments; read-out: Cytotoxicity IC50 in HeLa cells
Experimental: The cytotoxicity of phosphonamidate monoesters was evaluated against HeLa cells (ATCC-CCL-2), which were maintained in Dulbecco’s modified Eagle medium (Thermo Fisher Scientific) supplemented with 10% (v/v) fetal bovine serum (Thermo Fisher Scientific), penicillin (100 units/mL), and streptomycin (100 μg/mL, both from Sigma) at 37 °C, 5% CO2. Cells were seeded in 96-well plates (Corning, Merck) at 20 × 10^3 cells/well and incubated for 24 h (37 °C, 5% CO2). Stock solutions of the compounds were prepared at 150 mM in DMSO (Sigma), and the cells were exposed to a serial dilution and incubated for 24 h. Subsequently, the cells were washed twice with culture medium, and the PrestoBlue reagent (Thermo Fischer Scientific) was directly added to the cells for cell viability determination (1:10 dilution in culture medium). Following recommended incubation times (manufacturer’s instructions), fluorescence was measured using a Spark plate reader (Tecan, Austria) at Ex/Em 560/590 nm and corrected for background fluorescence by including control wells containing only cell culture media (no cells). Data analysis was performed using GraphPad Prism 9.0.0 (GraphPad Software, USA). At least two independent experiments were performed.
Figure S1. Cytotoxicity dose-response curves of phosphonamidate monoesters as determined in HeLa cells. The cells were treated with the compounds at the indicated concentrations, and cell viability was measured after 24 hours incubation. The following IC50 values wer e determined to be (A) 69. 2 µM (SD = 1.0) for KAT -A-109-H2, (B) 201.4 µM (SD = 4.4) for KAT -A-102-H1 and (C) 90.7 µM (SD = 1.0) for KAT -A-118-H1. All remaining compounds (D - H) had IC50 values above 500 µM. Data is shown as mean ± SD of at least two independent experiments.
*A 1h, B 1e, C 1f, D 1a, E 1b, F 1d, G 1c. […]

GIM-1 = GIM-1 (Pseudomonas aeruginosa, UniProt Q704V1); assay: MBL inhibition assay, purified GIM-1, nitrocefin hydrolysis at 482 nm; type: biochemical; details: for IC50 against purified GIM-1: nitrocefin reporter substrate, 1 nM enzyme, 2.5% DMSO, highest inhibitor concentration 800 μM, N.I. and P. not defined
Experimental: (§1) The inhibitory activities of 1a–h and 2 against the purified NDM-1, GIM-1, and VIM-2 enzymes were evaluated (IC50 data in Table 1). The inhibitory activity was measured by monitoring nitrocefin hydrolysis for VIM-2 and GIM-1 and that of imipenem for NDM-1[19] at λ 482 and 300 nm, respectively. […] This may indicate that unlike the sulfur of captopril, that of 1a and 2 might not coordinate the zinc ions in the active site. Alternatively, this may be a result of disulfide formation under the conditions of the enzyme assay. The hydrophobic 1f–h precipitated during the enzyme assay and their inhibitory activities could therefore not be reliably measured. This is not unusual as the binding cleft of MBL inhibitors is hydrophobic, and accordingly, their inhibitors typically have poor aqueous solubility.[20] The inhibitors may be solubilized by careful dilution of dimethylsulfoxide (DMSO) stock solutions; however, this was not successful for compounds 1f–h.
(§2) The inhibitory activity (IC50) of 1a–h was studied against the MBL enzymes NDM-1, GIM-1, and VIM-2. The buffer used for the studies contained 50 mM HEPES at pH 7.2, 10 μM ZnSO4, 2.5% DMSO, and 0.4 mg/mL bovine serum albumin, used as a prevention of protein unfolding and loss of activity. The enzyme concentration of NDM-1 was 10 nM, of GIM-1 1 nM, and of VIM-2 100 pM. The inhibitors were dissolved in 100% DMSO, and a twofold dilution series was made with a final 2.5% DMSO in the assay. The highest inhibitor concentration was 800 μM. The reporter substrate for VIM-2 and GIM-1 was nitrocefin, while for NDM-1 imipenem, and their absorbance (concentration) was followed at the wavelengths 482 and 300 nm, respectively. L-Captopril and EDTA-Na were used as positive and water and DMSO as negative controls. Measurements were read for 30 min at 298 K.

VIM-2 = VIM-2 (Escherichia coli, UniProt Q5U7L7); assay: MBL inhibition assay, purified VIM-2, nitrocefin hydrolysis at 482 nm; type: biochemical; details: for IC50 against purified VIM-2: nitrocefin reporter substrate, 100 pM enzyme, 2.5% DMSO, highest inhibitor concentration 800 μM, N.I. and P. not defined
Experimental: as §1, §2

NDM-1 [1] = molecular target: T1, NDM-1 (Klebsiella pneumoniae, UniProt C7C422); assay: MBL inhibition assay, purified NDM-1, imipenem hydrolysis at 300 nm; type: biochemical; details: for IC50 against purified NDM-1: imipenem reporter substrate, 10 nM enzyme, 2.5% DMSO, highest inhibitor concentration 800 μM, N.I. and P. not defined
Experimental: as §1, §2

[2] = Solubility in the MIC assay; type: physicochemical; details: Muller Hinton II broth
Experimental: (§3) The in vitro susceptibility of meropenem in combination with the different compounds was evaluated against E. coli expressing NDM-1 in a broth microdilution assay. A 96-well plate was prepared with the compounds in a twofold dilution series (final concentrations 1024–0.5 mg/L) in Muller Hinton II broth (MHB-II) in combination with 2, 4, or 8 mg/L meropenem. EDTA (100 μM) was used in combination with meropenem as control for inhibition of NDM-1. Three–five colonies of E. coli ATCC 25922 NDM-1 were suspended in 0.90% saline solution and adjusted to the 0.5 McFarland turbidity standard. The bacterial suspension was diluted in MHB-II and adjusted to a final inoculum of 5 × 10^5 CFU/mL.
Table S2. Susceptibility assay with E. coli ATCC 25922 NDM-1
Compound Minimum inhibitory concentration (mg/L)
Meropenem:compound ratio Meropenem

[3] = Solubility / aggregation in NMR buffer; type: physicochemical; details: 20 mM K3PO4 aqueous buffer solution at pH 7; aggregation was observed
Experimental: As binding-induced protein NMR chemical shift changes reveal the alteration of the local environment in the vicinity of the monitored nuclei, these are commonly acquired for identification of binding clefts. We monitored the weighted chemical shift changes, Δδ1H,15N, of uniformly ^15N-enriched backbone amide functionalities upon successive additions of the 0–2.370 mM ligand using ^1H,^15N HSQC experiments (Figure 5). Following literature examples,[31] chemical shift perturbations (CSPs) were considered to be significant (SSPs) in case the observed Δδ1H,15N was greater than the population mean plus the standard deviation (μ + 1σ). Such chemical shift changes may directly originate from the interaction or might be indirect and thus be the result of binding-induced conformational changes. Based on its activity against NDM-1 (Table 1) and solubility, 1d was selected for detailed analysis (Figure S2, Supporting Information). […] In order to exclude aggregation of 1d, we also performed additional ^1H,^15N HSQC titration experiments using 5% DMSO or 5% ethanol (EtOH). Some minor chemical shift variations were observed upon the addition of the co-solvents, as expected,[34] whereas neither protein precipitation nor alteration of the overall structure of NDM-1 was detected (Figures S3 and S4, Supporting Information). The chemical shift changes of 234 backbone amides were monitored. […]

NDM-1 [4] = molecular target: T1, NDM-1; assay: 1H,15N HSQC chemical shift titration and 15N-filtered HSQC-NOESY with 15N-labeled NDM-1; type: binding
Experimental: As binding-induced protein NMR chemical shift changes reveal the alteration of the local environment in the vicinity of the monitored nuclei, these are commonly acquired for identification of binding clefts. We monitored the weighted chemical shift changes, Δδ1H,15N, of uniformly ^15N-enriched backbone amide functionalities upon successive additions of the 0–2.370 mM ligand using ^1H,^15N HSQC experiments (Figure 5). Following literature examples,[31] chemical shift perturbations (CSPs) were considered to be significant (SSPs) in case the observed Δδ1H,15N was greater than the population mean plus the standard deviation (μ + 1σ). […] Some minor chemical shift variations were observed upon the addition of the co-solvents, as expected,[34] whereas neither protein precipitation nor alteration of the overall structure of NDM-1 was detected (Figures S3 and S4, Supporting Information). The chemical shift changes of 234 backbone amides were monitored. […]
Additional information about the binding event was obtained from 3D-^15N-filtered HSQC-NOESY (Figure S6, Supporting Information). […] Thus, in a filtered NOE experiment, only intermolecular cross-peaks are detected. […]
For the titrations, two ^15N-labeled NDM-1 (0.25 mM) batches were prepared. […] All experiments were recorded on a Bruker 600 MHz spectrometer at 310 K equipped with a 5 mm TCI cryogenic probe. […]

E. coli ATCC 25922 NDM-1 = type: cell-based; details: in combination with EDTA 100 μM (control for inhibition of NDM-1)
Experimental: as §3

Chain of GIM-1 (Q704V1 entry or part of it): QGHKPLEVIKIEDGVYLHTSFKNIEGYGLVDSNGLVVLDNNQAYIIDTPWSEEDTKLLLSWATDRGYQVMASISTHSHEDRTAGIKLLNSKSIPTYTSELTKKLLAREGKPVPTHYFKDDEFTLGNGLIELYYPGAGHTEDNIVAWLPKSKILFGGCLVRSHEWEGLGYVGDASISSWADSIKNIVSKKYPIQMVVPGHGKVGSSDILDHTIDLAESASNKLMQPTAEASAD
T1 sequence (C7C422 29-270 limits assumed): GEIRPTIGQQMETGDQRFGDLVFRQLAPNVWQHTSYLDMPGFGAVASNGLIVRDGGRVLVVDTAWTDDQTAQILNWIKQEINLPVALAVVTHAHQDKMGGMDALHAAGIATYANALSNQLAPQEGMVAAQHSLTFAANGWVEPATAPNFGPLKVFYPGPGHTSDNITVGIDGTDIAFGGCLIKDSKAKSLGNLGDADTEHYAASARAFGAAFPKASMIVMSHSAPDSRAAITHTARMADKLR

SMILES	IC50 (in vitro)	IC50 against purified GIM-1 (GIM-1)	IC50 against purified NDM-1 (NDM-1 [1])	IC50 against purified VIM-2 (VIM-2)	Solubility in MIC assay [2]	further results
COC(=O)[C@H](NP(=O)(CCSC(C)=O)OC)c1ccccc1 (mixture of isomers) [1c, Methyl (R)-2-(((R/S)-(2-(Acetylthio)ethyl) (methoxy)phosphoryl)amino)-2-phenylacetate]	> 500 µM	N.I.	N.I			IC50 (VIM-2): 500 µM
CCO[P@@](=O)(N[C@@H](C(=O)OC)c1ccccc1)[C@@H](CSC(C)=O)Cc1ccccc1 (mixture of isomers) [1g, Methyl (R)-2-(((R/S)-((R/S)-1-(Acetylthio)-3-phenylpropan-2-yl) (ethoxy)phosphoryl)amino)-2-phenylacetate]		P.	P.	P.	could not be dissolved	
COP(=O)(CCSC(C)=O)NCc1ccccn1 (racemic) [1a, (R/S)-(2-(Methoxy((pyridin-2-ylmethyl)amino)phosphoryl)ethyl) Ethanethioate]			N.I.	N.I.		IC50 at 24 h (in vitro): > 500 µM; IC50 (GIM-1): 86 µM
COP(=O)(CCSC(C)=O)N(C)Cc1ccccn1 (racemic) [1b, (R/S)-(2-(Methoxy(methyl(pyridin-2-ylmethyl)amino)phosphoryl)ethyl) Ethanethioate]						IC50 at 24 h (in vitro): > 500 µM; IC50 (GIM-1): 109 µM; IC50 (NDM-1 [1]): 356 µM
COP(=O)(CCSC(C)=O)N(Cc1ccccn1)Cc1ccccn1 (racemic) [1d, (R/S)-(2-((Bis(pyridin-2-ylmethyl)amino) (methoxy)phosphoryl)ethyl) Ethanethioate]	> 500 µM	N.I.		N.I.		Solubility [3]: limited solubility; Enzymatic modification of the structure by NDM-1 during the NMR studies (NDM-1 [4]): no sign for enzymatic modification; Binding to NDM-1 by chemical shift perturbation (NDM-1 [4]; 0.25 mM 15N-labeled NDM-1, up to 1:10 protein/ligand, 310 K): specific binding; IC50 (NDM-1 [1]): 430 µM
CCOP(=O)(NCc1ccccn1)C(CSC(C)=O)Cc1ccccc1 (racemic) [1e, S-((R/S)-2-((R/S)-(2-(Ethoxy((pyridine-2-ylmethyl)amino)phosphoryl)-3-phenylpropyl) Ethanethioate]	201 µM		N.I.	N.I.	could not be dissolved	
CCO[P@](=O)([C@@H](CSC(C)=O)Cc1ccccc1)N(C)Cc1ccccn1 (racemic) [1f, S-((R/S)-2-((R/S)-Ethoxy(methyl(pyridin-2-ylmethyl)amino)phosphoryl)-3-phenylpropyl) Ethanethioate]	90.7 µM	P.	P.	P.	could not be dissolved	
CCO[P@](=O)([C@@H](CSC(C)=O)Cc1ccccc1)N(Cc1ccccn1)Cc1ccccn1 (racemic) [1h, S-((R/S)-2-((R/S)-(Bis(pyridin-2-ylmethyl)amino)(ethoxy)phosphoryl)-3-phenylpropyl) Ethanethioate]	69.2 µM	P.	P.	P.		
O=C(O)CN(CCN(CC(=O)O)CC(=O)O)CC(=O)O [EDTA]						Minimum inhibitory concentration of meropenem (E. coli ATCC 25922 NDM-1): < 2 µg/mL
COP(=O)(CCS)NCc1ccccn1 (stereo not drawn) [compound 2]		N.I.	N.I.	N.I.		

— publication PMC8830069, “Metallo-β-Lactamase Inhibitor Phosphonamidate Monoesters” (ACS Omega, 2022)
